Test [1] addresses T1, Protein kinase C epsilon type (Mus musculus, UniProt P16054).
T1 sequence (P16054 whole entry): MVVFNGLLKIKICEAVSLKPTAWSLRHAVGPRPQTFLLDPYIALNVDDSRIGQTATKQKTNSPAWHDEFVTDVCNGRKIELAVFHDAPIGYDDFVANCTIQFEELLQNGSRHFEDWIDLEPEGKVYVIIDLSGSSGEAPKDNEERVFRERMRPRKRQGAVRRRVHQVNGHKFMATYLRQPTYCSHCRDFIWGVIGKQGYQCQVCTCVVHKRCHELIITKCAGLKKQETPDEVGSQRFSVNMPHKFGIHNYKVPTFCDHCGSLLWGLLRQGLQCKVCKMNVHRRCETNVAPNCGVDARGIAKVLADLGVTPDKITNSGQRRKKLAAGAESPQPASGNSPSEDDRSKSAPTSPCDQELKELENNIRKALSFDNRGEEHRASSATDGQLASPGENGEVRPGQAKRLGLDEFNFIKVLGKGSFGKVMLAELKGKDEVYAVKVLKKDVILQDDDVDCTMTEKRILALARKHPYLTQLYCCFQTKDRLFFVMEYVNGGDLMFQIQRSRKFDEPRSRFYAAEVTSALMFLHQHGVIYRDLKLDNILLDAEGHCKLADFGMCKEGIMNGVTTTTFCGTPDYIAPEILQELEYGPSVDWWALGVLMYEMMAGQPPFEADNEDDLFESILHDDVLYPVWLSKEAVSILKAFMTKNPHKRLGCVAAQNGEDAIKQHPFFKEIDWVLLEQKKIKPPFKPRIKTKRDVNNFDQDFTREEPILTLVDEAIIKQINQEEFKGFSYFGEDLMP
The test is described as follows: Inhibition of mouse recombinant PKCepsilon expressed in Sf9 insect cells.

In test [2] the target is Cyclin-dependent kinase 4/cyclin D1 (Homo sapiens, UniProt P11802). The test is described as follows: Inhibition of human recombinant CDK4/cyclin D1 kinase expressed in Sf9 insect cells.
Cyclin-dependent kinase 4/cyclin D1, sequence (P11802 whole entry): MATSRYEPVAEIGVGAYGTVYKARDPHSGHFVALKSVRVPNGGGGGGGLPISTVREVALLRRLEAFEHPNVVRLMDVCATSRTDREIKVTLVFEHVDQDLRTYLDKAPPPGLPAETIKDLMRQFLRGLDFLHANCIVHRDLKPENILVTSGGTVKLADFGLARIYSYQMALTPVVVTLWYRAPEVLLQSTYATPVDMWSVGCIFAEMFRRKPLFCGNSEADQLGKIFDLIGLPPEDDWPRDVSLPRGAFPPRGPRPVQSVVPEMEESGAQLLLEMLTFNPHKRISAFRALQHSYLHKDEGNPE
Cyclin-dependent kinase 4/cyclin D1, sequence (P24385 whole entry, further chain): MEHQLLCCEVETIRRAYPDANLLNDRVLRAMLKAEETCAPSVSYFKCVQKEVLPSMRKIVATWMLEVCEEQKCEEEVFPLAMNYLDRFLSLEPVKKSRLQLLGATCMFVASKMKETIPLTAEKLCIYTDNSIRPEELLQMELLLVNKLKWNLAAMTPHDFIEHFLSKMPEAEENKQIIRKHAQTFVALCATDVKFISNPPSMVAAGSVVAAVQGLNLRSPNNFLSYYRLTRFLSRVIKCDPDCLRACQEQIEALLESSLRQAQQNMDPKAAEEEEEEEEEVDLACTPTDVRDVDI
Test [3] has as its target Epidermal growth factor receptor (Homo sapiens, UniProt P00533). Nature of the test: Inhibition of human recombinant EGFR kinase expressed in Sf9 insect cells.

pIC50: −log10 of the molar value.

Epidermal growth factor receptor, sequence (P00533 whole entry): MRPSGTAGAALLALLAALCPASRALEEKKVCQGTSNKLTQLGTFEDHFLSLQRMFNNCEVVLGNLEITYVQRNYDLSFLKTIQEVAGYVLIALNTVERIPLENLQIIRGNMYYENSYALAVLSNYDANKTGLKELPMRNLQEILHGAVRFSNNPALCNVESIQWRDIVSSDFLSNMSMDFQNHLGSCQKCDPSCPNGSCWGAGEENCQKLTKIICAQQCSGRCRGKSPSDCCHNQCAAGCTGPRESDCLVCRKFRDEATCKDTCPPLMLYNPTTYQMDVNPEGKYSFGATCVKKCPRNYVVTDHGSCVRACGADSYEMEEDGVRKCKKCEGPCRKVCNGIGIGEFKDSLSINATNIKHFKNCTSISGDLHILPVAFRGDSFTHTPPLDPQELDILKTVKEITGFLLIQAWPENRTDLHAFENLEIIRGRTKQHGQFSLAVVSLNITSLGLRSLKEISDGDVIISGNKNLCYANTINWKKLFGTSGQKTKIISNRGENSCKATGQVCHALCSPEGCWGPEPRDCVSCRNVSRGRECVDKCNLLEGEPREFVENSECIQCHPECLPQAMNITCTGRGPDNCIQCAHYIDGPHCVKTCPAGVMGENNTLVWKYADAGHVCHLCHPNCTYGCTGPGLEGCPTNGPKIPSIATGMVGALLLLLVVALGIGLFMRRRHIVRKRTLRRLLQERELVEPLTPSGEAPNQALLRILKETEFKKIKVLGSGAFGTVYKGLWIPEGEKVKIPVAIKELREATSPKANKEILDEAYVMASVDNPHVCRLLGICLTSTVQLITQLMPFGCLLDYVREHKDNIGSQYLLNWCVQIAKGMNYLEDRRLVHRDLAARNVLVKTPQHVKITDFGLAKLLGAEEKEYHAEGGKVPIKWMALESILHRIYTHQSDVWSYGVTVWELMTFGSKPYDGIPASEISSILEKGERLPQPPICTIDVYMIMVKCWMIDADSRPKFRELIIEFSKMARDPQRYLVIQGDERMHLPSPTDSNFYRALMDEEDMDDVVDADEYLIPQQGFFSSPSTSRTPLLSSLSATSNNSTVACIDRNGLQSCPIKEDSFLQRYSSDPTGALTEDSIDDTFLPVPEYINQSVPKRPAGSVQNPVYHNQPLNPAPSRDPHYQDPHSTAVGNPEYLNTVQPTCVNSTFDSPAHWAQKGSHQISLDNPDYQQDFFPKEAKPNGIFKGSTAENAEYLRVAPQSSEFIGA

Take `CCC(C)[C@@H]1[C@@](C)(C(=O)/C=C/N(c2ccccc2)c2ccc3ccccc3c2)[C@H]2[C@H](C)C[C@@](C)(O)C[C@]2(O)C(=O)[C@@]1(C)O` (stereo not given in full): the negative logarithm of the IC50 (pIC50) in test [1], in test [2] and in test [3] was below 4.00 each time.
For `C[C@@H](O)c1c(O)cc2c(c1O)C(=O)c1c(O)cc(O)cc1C2=O`, the pIC50 is 4.73 in test [1], 4.36 in test [2] and 4.43 in test [3].
With `CO[C@H](C)c1c(O)cc2c(c1O)C(=O)c1c(cc(O)c(O)c1O)C2=O`, the negative-log IC50 (pIC50) was 4.27 in test [1], 4.43 in test [2] and 4.39 in test [3].
The corresponding values for `CCC(C)[C@@H]1[C@@](C)(C(=O)/C=C/OC)[C@H]2[C@H](C)C[C@@](C)(O)C[C@]2(O)C(=O)[C@@]1(C)O` (stereo not given in full) are 4.44, 4.94 and 4.98.
Regarding `CO[C@H](C)c1c(O)cc2c(c1O)C(=O)c1c(O)cc(O)cc1C2=O`, the results for the negative-log IC50 (pIC50) in test [1], in test [2] and in test [3] were 4.57, 4.65 and 4.56, respectively.

What is called pIC50 is −log10 of the IC50, conventionally taken in molar units.

These data come from ChEMBL document CHEMBL1142620, “Anthraquinones and betaenone derivatives from the sponge-associated fungus Microsphaeropsis species: novel inhibitors of protein kinases” (J Nat Prod, 2000).
